Laboratory results: US20040171616A9, “Polycyclic aryl and heteroaryl substituted 1,4-quinones useful for selective inhibition of the coagulation cascade” (priority 2000, published 2004)

Columns and labels:
[1] = molecular target: T1, recombinant soluble tissue factor and recombinant human factor VIIa (Homo sapiens, UniProt P08709); assay: TF-VIIa Assay; assay type: biochemical; conditions: chromogenic substrate, 60 min at room temperature, OD 405 nm
T1 construct: purchased American Diagnostica, Greenwich Conn; (factor VIIa); host or cells: soluble TF made in house in E. coli
T1 sequence (P08709 213-466 limits assumed): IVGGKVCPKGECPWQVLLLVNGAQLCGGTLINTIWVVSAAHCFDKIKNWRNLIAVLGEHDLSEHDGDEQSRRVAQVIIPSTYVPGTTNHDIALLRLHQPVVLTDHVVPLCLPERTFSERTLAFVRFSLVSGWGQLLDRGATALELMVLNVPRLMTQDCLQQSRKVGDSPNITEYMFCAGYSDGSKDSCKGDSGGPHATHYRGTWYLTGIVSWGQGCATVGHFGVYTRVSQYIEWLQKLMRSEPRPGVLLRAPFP
T1 sequence (P08709 61-212 limits assumed): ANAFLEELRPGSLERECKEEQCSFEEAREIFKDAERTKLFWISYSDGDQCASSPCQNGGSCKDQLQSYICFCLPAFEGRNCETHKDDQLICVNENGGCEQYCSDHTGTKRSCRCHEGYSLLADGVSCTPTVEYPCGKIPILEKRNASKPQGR
T1 sequence (P13726 33-251 partner limits assumed): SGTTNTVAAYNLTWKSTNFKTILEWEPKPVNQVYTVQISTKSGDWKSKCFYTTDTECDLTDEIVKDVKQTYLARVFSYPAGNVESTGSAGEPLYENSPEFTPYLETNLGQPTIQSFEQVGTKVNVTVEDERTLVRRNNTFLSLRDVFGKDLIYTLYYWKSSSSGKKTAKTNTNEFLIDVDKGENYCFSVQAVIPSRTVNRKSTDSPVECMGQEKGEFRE
Experimental: In this assay 100 nM recombinant soluble tissue factor and 2 nM recombinant human factor VIIa are added to a 96-well assay plate containing 0.4 mM of the substrate, N-Methylsulfonyl-D-phe-gly-arg-p-nitroaniline and either inhibitor or buffer (5 mM CaCl2,50 mM Tris-HCl, pH 8.0, 100 mM NaCl, 0.1% BSA). The reaction, in a final volume of 100 ul is measured immediately at 405 nm to determine background absorbance. The plate is incubated at room temperature for 60 min, at which time the rate of hydrolysis of the substrate is measured by monitoring the reaction at 405 nm for the release of p-nitroaniline. Percent inhibition of TF-VIIa activity is calculated from OD405 nm value from the experimental and control sample.
Recombinant soluble TF, consisting of amino acids 1-219 of the mature protein sequence was expressed in E. coli and purified using a Mono Q Sepharose FPLC. Recombinant human VIIa was purchased from American Diagnostica, Greenwich Conn. and chromogenic substrate N-Methylsulfonyl-D-phe-gly-arg-p-nitroaniline was prepared by American Peptide Company, Inc., Sunnyvale, Calif.

[2] = molecular target: T2, human factor Xa (Homo sapiens, UniProt P00742); assay: Xa Assay; assay type: biochemical; conditions: percent inhibition of Xa activity; test concentration not given; 60 min
T2 construct: purchased Enzyme Research Laboratories, South Bend Ind
T2 sequence (P00742 235-488 limits assumed): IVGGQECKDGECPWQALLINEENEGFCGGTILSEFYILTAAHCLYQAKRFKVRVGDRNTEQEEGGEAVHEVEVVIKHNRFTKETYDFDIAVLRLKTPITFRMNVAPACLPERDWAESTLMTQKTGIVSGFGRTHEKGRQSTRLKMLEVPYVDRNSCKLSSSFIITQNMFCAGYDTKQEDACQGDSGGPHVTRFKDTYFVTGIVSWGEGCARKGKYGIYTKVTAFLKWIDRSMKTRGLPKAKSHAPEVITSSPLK
T2 sequence (P00742 41-179 limits assumed): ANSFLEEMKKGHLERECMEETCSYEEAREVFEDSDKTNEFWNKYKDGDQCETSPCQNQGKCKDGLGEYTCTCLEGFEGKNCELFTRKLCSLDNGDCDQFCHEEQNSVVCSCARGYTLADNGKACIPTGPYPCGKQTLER

**Q.** What does the source list for N=C(N)c1ccc(CNC(=O)CC2=C(c3ccccc3)C(=O)C=C(NCCc3ccccc3)C2=O)cc1 [Example 2]?
**A.** TF-VIIA IC50 [1]: 13 µM; Factor Xa (cell printed as %, in the IC50 column) [2]: 13%
